Reference: patent US9839674B2, “Methods of inducing indolamine 2,3—dioxygenase (IDO)” (IDOGEN AB, priority 2010, dated 2017)

Columns and labels:
[1] = system: IDO1 expression in THP-1 cells; assay: IDO1 expression in THP-1 cells by reverse transcriptase PCR (bands), kinetics; type: cell-based, human
Method: (§1) THP-1 (ATCC: TIB-202) is a human monocytic cell line that originates from an acute monocytic leukemia. It has the phenotype of monocytes but can be differentiated to a more dendritic phenotype. In the current study, the THP-1 cells were in vitro passaged in RPMI 1640 medium supplemented with 5% or 10% FCS, 10 mM Hepes, 1 mM Sodium pyruvate, and 50 ug/ml gentamicin (R5 or R10 medium respectively). The cell density was adjusted to 200 000 cells per ml, and the cultures were incubated for four to seven days at 37° C. with 10% CO2 in a humidified incubator. The substance, or combination of substances, being studied, were added to the medium at specified time points and in the case of IFN-gamma removed from medium as indicated. 96-168 hours after initiation of treatment, the IDO expression was assessed by PCR or by Quantitative PCR (Roche). RNA was extracted from cells cultured in flasks or six-well plates using Trizol reagent according to Invitrogen's protocol. Residual DNA was removed through Rnase free DNase (Roche Applied Science) treatment. Quality and quantity of the isolated RNA was measured by spectrophotometer and gel electrophoresis.
The sequences of forward primers and reverse primers for the human IDO-1 gene analyzed and the house-keeping gene HPRT respectively, were: IDO-1 forward: 5′-[…]-3′, reverse: 5′-C AGAC AAAT AT A TGCGAAGAAC; HPRT Forward: 5′-[…]-3′, HPRT Reverse: 5′-ACTAAGCAGATGGCCAC AGAA-3′. The PCR conditions were set as follows: 1 denaturing cycle at 94° C. for 2 min followed by 40 cycles (for the IDO-1) or 30 cycles (for the HPRT) at 94° C. for 15 s, 53° C. for 30 s, and 72° C. for 30 s with a final extension reaction at 72° C. for 5 min.
Materials and methods used were the same as described in Example 1 above. […] In panel B, the THP-1 cells were given zebularine alone during 5 days and a weak band was detected. […] In panel C the THP-1 cells were exposed to zebularine for 6 days and interferon gamma was given during 24 hours after four days and the cells were harvested after a total of 6 days. […]

[2] = system: IDO1 expression in THP-1 cells; assay: IDO1 expression in THP-1 cells by PCR / quantitative real-time PCR; type: cell-based, human; settings: for IDO1 expression (relative value): zebularine 100 uM, interferon gamma 200 IU/ml, alone or both together, FIG. 1
Method: as §1
Quantitative real-time PCR analyses (qRT-PCR) were performed using Super-Script III Platinum Two-Step qRT-PCR Kit with SYBR Green (Invitrogen). A total of 100-500 ng total RNA was used in a 20 ul RT reaction using a mixture of polydT and random hexamer primers. The cDNA obtained was diluted to a total volume of 80 ul and stored at −20° C. The primer sequences for the different genes were designed using Gene Fisher software support (G. Giegerich, F. Meyer, C. Schleiermacher, ISMB-96). The primers used for amplification of the IDO gene were: Forward: SEQ ID NO: 5—5′-[…]-3′, Primer sequences, Reverse: SEQ ID NO: 6—TTTCACA-CAGGCGTCATAAGCT-3′.
Hypoxanthine guanine phosphoribosyl transferase (HPRT) HPRT Forward: SEQ ID NO: 7—5′-[…]-3′, HPRT Reverse: SEQ ID NO: 8—5′-[…]-3′ according to the cDNA sequence, were used. The qRT-PCR was performed in 20 ul reaction consisting of 2 ul diluted cDNA (12.5 ng), 0.3 uM of each primer, 1 ul bovine serum albumin (50 ug/ml), and 10 ul Platinum SYBR Green qRT-PCR superMix-UDG. The amplification of IDO was carried out in a Light Cycler (Roche Molecular Biochemicals) with the following thermal profile: Platinum SYBR Green qRT-PCR superMix-UDG incubation at 50° C. for 2 min, then denaturing at 95° C. for 5 min, followed by 45 cycles at 94° C. for 2 s, 58° C. for 10 s, and 72° C. for 14 s. The amplification of HPRT was carried out as follows, UDG incubation at 50° C. for 2 min, denaturing at 95° C. for 5 min, followed by 45 cycles at 94° C. for 2 s, 55° C. for 10 s, and 72° C. for 14 s. After amplification a melting curve analysis was performed. The qRT-PCR experiments were always run in triplicate.

[3] = system: allotransplanted Lewis rat pancreatic islets; assay: Rejection of allotransplanted pancreatic islets beneath the kidney capsule (blood glucose follow up); type: in vivo; settings: Fischer 344 rats, 225 mg/kg intraperitoneal daily for 14 days starting 6-8 days after transplantation, FIG. 16
Method: Pancreatic islets were isolated from the pancreas of Lewis rats by established technique. After culture at 37° C. over night, 500-1200 islets were implanted beneath the kidney capsule of adult (11-14 weeks old) Fischer 344 rats that were confirmed hyperglucemic (blood glucose >20 mMol/L) after having received a single dose of 35-40 mg/kg intraperitoneally of Streptozotocine, which is selectively toxic to the insulin producing beta cells present in the pancreatic islets. […] The two exceptional rats that maintained a normal blood sugar were subjected to nephrectomy 40 and 43 days after transplantation to check whether their normal blood glucose was a result of unexpected sustained survival of the grafted islets (in which case their blood sugar should promptly increase upon removal of the graft) or was due to a recovery of some Streptozotocine-damaged pancreatic islets (in which case their blood sugar should stay normal despite removal of the graft). […] Twenty two days after transplantation only 1/10 of the zebularine treated rats had rejected the graft as indicated by a normal blood sugar in all but this single rat at completion of the treatment 20-22 days after transplantation and in all of 7 analyzed >1 week after the zebularine treatment was stopped (FIG. 16).

[4] = IFN-g 100 iu/ml or IFN-A alone for 24 h (day 4), FIG. 11
[5] = IFN-g 100 iu/ml or interferon A 25 ng/ml alone for 24 h (day 4), FIG. 12

In the case of “interferon gamma: interferon gamma (Sigma), IDO inducer”, the “IDO1 expression (RT-PCR band), panel B” value ([1]; zebularine 5 days, interferon gamma after 3 days for 24 h, tested 24 hours after removal, FIG. 6B) is reported as “weak band”, the “IDO1 expression (RT-PCR band), panel C” value ([1]; zebularine 6 days, interferon gamma 24 hours after four days, harvest after 6 days, FIG. 6C) is reported as “almost no IDO1 induction” and the “IDO1 expression (RT-PCR band), panel A” value ([1]; zebularine four days, interferon gamma added after 3 days, 24 hours before harvest, FIG. 6A) is reported as “strong band”. For the same compound, the “IDO1 expression after 168 h of culture” value [2, 4] was “minimal”, the “IDO1 expression after 168 h of culture” value [2, 5] was “minimal” and the “course of IDO1 induction after the first 24 hours” value ([2]; interferon gamma 200 IU/ml initial 24 h, alone or with zebularine 100 uM for the entire period, harvest 48-96 h, FIG. 5) was “not sustained and dropped rapidly”. For the same compound, the “IDO1 expression after 10, 12 or 14 days of culture” value ([2]; interferon gamma 200 iu/ml alone for 24 h on day 4, FIG. 10) was “minimal”, the “IDO1 induction after 24 hours” value ([2]; zebularine 100 uM or interferon gamma 200 IU/ml alone, harvest 24 h, FIG. 5) was “strong” and the “IDO1 expression (relative value)” value [2] was 80.
`O=c1ncccn1[C@@H]1O[C@H](CO)[C@@H](O)[C@H]1O` [zebularine, reference compound] was tested, and the “IDO1 expression (relative value)” value [2] was 9 and the “rats that had rejected the graft twenty two days after transplantation” value [3] was 1/10.
In the case of interferon A, the “IDO1 expression after 168 h of culture” value [2, 4] is reported as “minimal” and the “IDO1 expression after 168 h of culture” value [2, 5] is reported as “minimal”.
